Laboratory results published in patent US20130090315A1 (priority 2011, published 2013).

Tests used:
glutathione reductase = details: 72 hours post-injury, compared to all other groups, FIG. 2, p<0.01; cited from earlier work
[1] = target: T1, progesterone receptor (PR) (Homo sapiens, UniProt P06401); details: cited from earlier work
T1 sequence (P06401 1-933): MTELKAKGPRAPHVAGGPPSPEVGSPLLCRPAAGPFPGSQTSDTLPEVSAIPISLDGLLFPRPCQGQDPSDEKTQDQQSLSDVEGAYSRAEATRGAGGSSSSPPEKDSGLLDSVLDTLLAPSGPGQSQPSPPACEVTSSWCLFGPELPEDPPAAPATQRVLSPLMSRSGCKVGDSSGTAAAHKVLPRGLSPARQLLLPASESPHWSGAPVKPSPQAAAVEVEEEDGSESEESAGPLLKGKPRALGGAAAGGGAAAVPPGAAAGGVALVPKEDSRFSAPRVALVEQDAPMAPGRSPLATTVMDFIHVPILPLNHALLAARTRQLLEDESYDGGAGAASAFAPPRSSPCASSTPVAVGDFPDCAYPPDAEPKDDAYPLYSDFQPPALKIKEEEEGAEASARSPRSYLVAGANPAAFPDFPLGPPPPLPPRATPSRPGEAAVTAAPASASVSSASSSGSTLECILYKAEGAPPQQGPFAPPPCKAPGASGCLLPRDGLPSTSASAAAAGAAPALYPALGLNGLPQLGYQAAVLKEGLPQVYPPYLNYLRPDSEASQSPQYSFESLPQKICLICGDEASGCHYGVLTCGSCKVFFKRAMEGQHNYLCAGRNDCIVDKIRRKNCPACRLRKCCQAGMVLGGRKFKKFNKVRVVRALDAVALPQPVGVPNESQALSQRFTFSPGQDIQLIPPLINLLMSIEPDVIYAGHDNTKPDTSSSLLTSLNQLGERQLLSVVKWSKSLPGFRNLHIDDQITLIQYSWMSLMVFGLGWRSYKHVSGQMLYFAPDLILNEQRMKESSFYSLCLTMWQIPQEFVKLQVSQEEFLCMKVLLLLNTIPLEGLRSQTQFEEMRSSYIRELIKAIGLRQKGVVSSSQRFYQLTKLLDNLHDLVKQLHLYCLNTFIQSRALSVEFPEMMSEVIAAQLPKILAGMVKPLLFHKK

rats suffering from TBI = details: 16 mg/kg, 72 hours post-injury, FIG. 1, p<0.05; cited from earlier work
rats following injury = details: cited from earlier work
males = details: in males; cited from earlier work
[2] = tested on: rats that have suffered a concussion; assay: Morris Water Maze latency to platform in mTBI (concussion) model; assay type: in vivo; details: versus vehicle-injured rats, FIG. 8
[3] = tested on: moderate to severe TBI patients; details: cited from earlier work

For CC(=O)[C@@H]1CC[C@@H]2[C@H]3CCC4=CC(=O)CC[C@@]4(C)[C@@H]3CC[C@]21C [ent-Prog, ent-progesterone], the “anti-oxidant activity of glutathione reductase” value (glutathione reductase) is listed as “significantly increases the anti-oxidant activity of glutathione reductase”, the “activation of PR-mediated transcription” value [1] is listed as “does not activate PR-mediated transcription” and the “brain water content (measure of edema)” value (rats suffering from TBI) is listed as “normalizes brain water content”.
For CC(=O)[C@H]1CC[C@H]2[C@@H]3CCC4=CC(=O)CC[C@]4(C)[C@H]3CC[C@]12C [Prog, progesterone], the “edema in both rodent sexes” value (rats following injury; both rodent sexes) is given as “effectively attenuates edema”, the “factors of cell death (caspase-3) and gliosis (GFAP)” value (rats following injury) is given as “decreased of the presence of the factors of cell death (caspase-3) and gliosis (GFAP)” and the “inflammatory factors (TNF-α and IL-β)” value (rats following injury) is given as “inhibiting inflammatory factors (TNF-α and IL-β)”. For the same molecule, the “Neurological Severity Score (motor and cognitive functioning)” value (rats following injury; rats) was “significant improvements”, the “conversion of testosterone to dihydrotestosterone” value (males) was “inhibits the conversion of testosterone to dihydrotestosterone” and the “size of reproductive organs” value (males) was “reduces the size of reproductive organs”. The spermatogenesis (males) was “suppresses spermatogenesis”, the “latency to platform, post-acute administration” value ([2]; 15 minutes post mTBI) was “decreases latency to platform” and the “latency to platform, prophylactic administration” value ([2]; 15 minutes prior to mTBI) was “decreases latency to platform”. The “30 days post-injury outcomes (Glasgow Outcome Scale-Extended, Disability Rating Scale), moderate TBI” value ([3]; moderate TBI patients, 30 days post-injury) was “better outcomes”, the reduction in mortality ([3]; moderate to severe TBI patients, 72 hours of continuous intravenous Prog) was 50% and the “30 days post-injury outcomes (Glasgow Outcome Scale-Extended, Disability Rating Scale), severe brain injuries” value ([3]; patients with severe brain injuries, 30 days post-injury) was “little measurable difference”. The “neurological outcomes at six months” value ([3]; severe TBI patients, six months) was “better neurological outcomes long-term” and the “brain water content (measure of edema)” value (rats suffering from TBI) was “normalizes brain water content”.
In the case of CC(=O)[C@H]1CC[C@H]2[C@@H]3CC[C@H]4C[C@H](O)CC[C@]4(C)[C@H]3CC[C@]12C [ALLO, allopregnanolone], the “factors of cell death (caspase-3) and gliosis (GFAP)” value (rats following injury) is given as “decreased of the presence of the factors of cell death (caspase-3) and gliosis (GFAP)” and the “brain water content (measure of edema)” value (rats suffering from TBI) is given as “normalizes brain water content”.
